Drawing on ChEMBL document CHEMBL3301361, “Experimental in vitro DMPK and physicochemical data on a set of publicly disclosed compounds”, this text covers logD and microsomal CLint for 49 molecules.

One data set can be described thus: physchem. To be noted: octan-1-ol/water, pH 7.4, LogD7.4.
A short description of another data set: in vitro. To be noted: human.

As for `N#Cc1c(-c2ccccc2)nc(SCc2ccccc2)[nH]c1=O`, the logD in “physchem” is 1.56. Moreover, the microsomal CLint in “in vitro” (microsomes) is 6 µL/min/mg.
For `CCCCc1nc2c(N)nc3ccccc3c2n1Cc1ccccc1`, in “physchem”, the logD came out at 4.17. In the data set “in vitro” (microsomes), this molecule had a microsomal CLint of 6 µL/min/mg.
Take `CCCC1CCCCC(N)=N1` (stereo not drawn): the logD in the data set “physchem” turned out to be 1.1. For the same molecule, in the data set “in vitro” (liver microsomes), the microsomal CLint is less than 3 µL/min/mg.
`CC(C)C[C@H](NC(=O)N1CCOCC1)C(=O)NCC#N`: the logD in the data set “physchem” was 0.08. Besides, the microsomal CLint in the data set “in vitro” (liver microsomes) was less than 3 µL/min/mg.
Consider `C(#Cc1n[nH]c2ccccc12)c1ccccc1`, for which the logD in “physchem” came out at 4.31. Besides, the microsomal CLint in “in vitro” (microsomes) was found to be 35 µL/min/mg.
`c1ccc(Sc2ccc3ccccc3n2)cc1` came in with a logD in the data set “physchem” of 3.92. This molecule came in with a microsomal CLint in the data set “in vitro” (microsomes) of 61 µL/min/mg.
In turn, `CC1CN(S(=O)(=O)c2ccccc2)CCN1Cc1cc(Cl)ccc1OCC(=O)O` (stereo not drawn) came in with a logD in the data set “physchem” of 0.69. The microsomal CLint in the data set “in vitro” (microsomes) is less than 3 µL/min/mg.
For the molecule `C[C@H]1CN(Cc2cc(Cl)ccc2OC(C)(C)C(=O)O)CCN1S(=O)(=O)c1ccccc1`, in the data set “physchem”, the logD was determined as 0.54. In addition, the microsomal CLint in “in vitro” (microsomes) was less than 3 µL/min/mg.
The matching figures for `Cc1ccc(C#N)cc1-c1cc(C(F)(F)F)ccc1OCC(=O)O`: 0.15 and less than 3 µL/min/mg.
Molecule `O=C(NCC1CCCCC1)c1cc(-n2ncc(=O)[nH]c2=O)ccc1Cl` gave a logD in the data set “physchem” of 1.26. The same molecule yielded a microsomal CLint in the data set “in vitro” (microsomes) of 8.5 µL/min/mg.
Take `N#Cc1cc(Cl)ccc1O[C@H](CCN)c1ccccc1`: the logD in the data set “physchem” was determined as 0.91. Also, in the data set “in vitro” (liver microsomes), the microsomal CLint was less than 3 µL/min/mg.
For the molecule `CCc1ccc(CCNCCCSCCNC[C@H](O)c2ccc(O)c3[nH]c(=O)sc23)cc1`, the logD in the data set “physchem” was found to be 0.86. Besides, the microsomal CLint in the data set “in vitro” (liver microsomes) was 68 µL/min/mg.
`O=c1[nH]c2c(O)ccc([C@@H](O)CNCCCSCCNCCc3cccc(Cl)c3)c2s1`: the logD in the data set “physchem” is 1.06. Also, the microsomal CLint in the data set “in vitro” (liver microsomes) stood at 20 µL/min/mg.
Turning to `O=c1[nH]c2c(O)ccc([C@@H](O)CNCCCSCCNCCc3cccc(Cl)c3Cl)c2s1`, the logD in “physchem” was found to be 1.74. This molecule registered a microsomal CLint in “in vitro” (liver microsomes) of 35 µL/min/mg.
Molecule `Cc1c(Sc2ccc(Cl)cc2)c2cc(Cl)ccc2n1C(C)C(=O)O` (stereo not drawn) yielded a logD in “physchem” of 3.56. Also, the microsomal CLint in “in vitro” (microsomes) is less than 3 µL/min/mg.
`Cc1c(Sc2ccc(Cl)cc2)c2ccc(S(C)(=O)=O)cc2n1CC(=O)O`: the logD in “physchem” came out at 0.79. The microsomal CLint in the data set “in vitro” (microsomes) was less than 3 µL/min/mg.
`CNC(=O)c1cccc2c1c(Sc1ccc(Cl)cc1)c(C)n2CC(=O)O`: the logD in the data set “physchem” was -0.89. Also, the microsomal CLint in “in vitro” (liver microsomes) is less than 3 µL/min/mg.
Consider `Cc1ccc2c(c1)c([S+]([O-])c1ccc(Cl)cc1)c(C)n2CC(=O)O` (stereo not drawn), for which, in “physchem”, the logD amounted to 0.05. Further, the microsomal CLint in “in vitro” (liver microsomes) was 3 µL/min/mg.
`COc1ccccc1CNCc1ccc(CCNC[C@H](O)c2ccc(O)c3[nH]c(=O)sc23)cc1` gave a logD in “physchem” of 0.15. Also, the microsomal CLint in “in vitro” (microsomes) was 22 µL/min/mg.
Take `COc1ccccc1CNCCc1cccc(CCNC[C@H](O)c2ccc(O)c3[nH]c(=O)sc23)c1`: in the data set “physchem”, the logD stood at 0.91. The same molecule came in with a microsomal CLint in the data set “in vitro” (liver microsomes) of 56 µL/min/mg.
`O=C(O)CSCC(=O)Nc1nc(-c2ccc(F)cc2)cs1` gave a logD in the data set “physchem” of -0.2. In “in vitro” (liver microsomes), the microsomal CLint is less than 3 µL/min/mg.
With `Cc1ccc(C(=O)NC(C)C)cc1-n1cnc2ccc(N3CCN(C)CC3)cc2c1=O`, the logD in the data set “physchem” worked out at 1.56. This molecule also displayed a microsomal CLint in “in vitro” (liver microsomes) of less than 3 µL/min/mg.
The matching figures for `COc1cccc2c(-c3c(C)n(CC(=O)O)c4ccc(C)cc34)ccnc12`: 0.49 and 5 µL/min/mg.
As for `Cc1ccc2c(c1)c(-c1ccnc3c(C#N)cccc13)c(C)n2CC(=O)O`, the log distribution coefficient (logD) in “physchem” is 0.52. The molecule further returned a microsomal CLint in the data set “in vitro” (liver microsomes) of less than 3 µL/min/mg.
Molecule `COc1ccc(C(=O)NCCN2CCN(Cc3ccc(Cl)c(Cl)c3)CC2)cc1Cl` registered a logD in the data set “physchem” of 3.74. The microsomal CLint in “in vitro” (microsomes) was found to be 50.5 µL/min/mg.
In turn, `Cc1ccc(S(=O)(=O)NC(=O)N2CCC(N3CCC(Oc4ccc(F)c(F)c4)CC3)CC2)cc1` yielded a pH-dependent lipophilicity (logD) in “physchem” of 0.75. In “in vitro” (liver microsomes), this molecule had a microsomal CLint of less than 3 µL/min/mg.
For the molecule `Cc1c(Cl)ccc(OC2CCN(C[C@H](O)CNC(=O)c3c[nH]nc3C(F)(F)F)CC2)c1Cl`, in the data set “physchem”, the log distribution coefficient (logD) was found to be 3.66. The molecule further came in with a microsomal CLint in “in vitro” (liver microsomes) of less than 3 µL/min/mg.
In the case of `O=C(NC[C@@H](O)CN1CCC(Oc2ccc(Cl)c(Cl)c2)CC1)c1c[nH]c2ccccc12`, in the data set “physchem”, the logD was 3.91. The molecule further registered a microsomal CLint in “in vitro” (microsomes) of less than 3 µL/min/mg.
As to `O=C(NC[C@@H](O)CN1CCC(Oc2ccc(Cl)c(Cl)c2)CC1)c1n[nH]c(=O)c2ccccc12`, the logD in “physchem” came to 3.69. In addition, the microsomal CLint in “in vitro” (liver microsomes) was 3 µL/min/mg.
`O=C(NC[C@@H](O)CN1CCC(Oc2ccc(Cl)c(Cl)c2)CC1)n1c(=O)[nH]c2ccccc21`: the logD in “physchem” worked out at 4.46. The molecule further returned a microsomal CLint in the data set “in vitro” (microsomes) of less than 3 µL/min/mg.
`Cc1cnc(Oc2ccc(-n3ccnc3)cc2)nc1Oc1ccc2c(c1)OCO2` came in with a logD in “physchem” of 3.56. In the data set “in vitro” (liver microsomes), this molecule yielded a microsomal CLint of less than 3 µL/min/mg.
In turn, `CSc1nc(-c2ccccc2)nn1Cc1ccccc1` yielded a pH-dependent lipophilicity (logD) in the data set “physchem” of 3.83. The intrinsic metabolic clearance (microsomal CLint) in the data set “in vitro” (microsomes) worked out at 116 µL/min/mg.
Consider `O=C(NCC12CC3CC(CC(C3)C1)C2)c1ccccc1Cl`, for which the logD in “physchem” came to 4.05. Further, the microsomal CLint in the data set “in vitro” (liver microsomes) is 69 µL/min/mg.
In turn, `CC1CN(C(=O)c2cc3ccccc3[nH]2)CCN1` (stereo not drawn) showed a logD in the data set “physchem” of 0.94. The same molecule came in with a microsomal CLint in “in vitro” (liver microsomes) of 8 µL/min/mg.
In “physchem”, `CCO/N=C(\c1ccc(Br)cc1)C1CCN(C2(C)CCN(C(=O)c3c(Cl)cncc3Cl)CC2)CC1` came in with a logD of 4. This molecule returned a microsomal CLint in the data set “in vitro” (liver microsomes) of 4 µL/min/mg.
Take `CCN(C(=O)Cc1ccc([N+](=O)[O-])cc1)C1CCN(CCC(c2ccccc2)c2ccccc2)CC1`: the pH-dependent lipophilicity (logD) in the data set “physchem” was found to be 4.1. The microsomal CLint in “in vitro” (liver microsomes) worked out at 13 µL/min/mg.
Molecule `Nc1nc(NCc2ccccc2)nc2c1nc(O)n2Cc1ccccc1` returned a logD in the data set “physchem” of 3.69. In addition, the microsomal CLint in “in vitro” (microsomes) worked out at 11 µL/min/mg.
For `Cc1ccc2c(c1)c(-c1ccnc3ccc(C(F)(F)F)cc13)c(C)n2CC(=O)O`, the logD in “physchem” came out at 1.78. In “in vitro” (liver microsomes), this molecule came in with a microsomal CLint of 23 µL/min/mg.
Regarding `Cc1nc(CSc2nc(N[C@H](C)CO)c3sc(N)nc3n2)cs1`, the pH-dependent lipophilicity (logD) in the data set “physchem” was determined as 1.73. The microsomal CLint in the data set “in vitro” (microsomes) came out at 3 µL/min/mg.
As to `COc1ccc(C)c(NC(=O)CC23CC4CC(CC(C4)C2)C3)c1`, the logD in the data set “physchem” came to 3.96. The microsomal CLint in the data set “in vitro” (liver microsomes) was more than 150 µL/min/mg.
In “physchem”, `CCO[C@@H]1OC(=O)C[C@@H]1NC(=O)[C@@H]1CCCN2C(=O)CC[C@H](NC(=O)c3nccc4ccccc34)C(=O)N12` showed a logD of 1.16. Also, the microsomal CLint in the data set “in vitro” (liver microsomes) was less than 3 µL/min/mg.
`COCCNCc1ccc(-c2cc(C(N)=O)c(NC(N)=O)s2)cc1`: in “physchem”, the log distribution coefficient (logD) stood at 0.87. This molecule also came in with a microsomal CLint in the data set “in vitro” (liver microsomes) of 3 µL/min/mg.
The matching figures for `CN(C)CCCOc1ccc(-c2cc(C(N)=O)c(NC(N)=O)s2)cc1`: 0.64 and 6 µL/min/mg.
In turn, `CC1(C)[C@@H]2CC[C@@]1(CS(=O)(=O)NC1CCN(c3ccc(C(F)(F)F)cn3)CC1)C(=O)C2` yielded a logD in “physchem” of 3.84. The same molecule gave a microsomal CLint in “in vitro” (liver microsomes) of 75 µL/min/mg.
The molecule `O=C(CC12CC3CC(CC(C3)C1)C2)Nc1ccc2[nH]ncc2c1` displayed a logD in the data set “physchem” of 4.03. For the same molecule, the microsomal CLint in the data set “in vitro” (liver microsomes) came to 21 µL/min/mg.
In the case of `CC1CCC(CC(=O)Nc2cccc3ncccc23)CC1` (stereo not drawn), the logD in “physchem” turned out to be 3.56. This molecule displayed a microsomal CLint in “in vitro” (liver microsomes) of 38 µL/min/mg.
Consider `NC1CCN(c2nccc(C(=O)NCC34CC5CC(CC(C5)C3)C4)c2Cl)CC1`, for which, in “physchem”, the logD stood at 1.19. Further, in “in vitro” (microsomes), the microsomal CLint was 41 µL/min/mg.
In turn, `Cc1ccc2nc(CCNCCCO)ccc2c1NC(=O)CC12CC3CC(CC(C3)C1)C2` gave a logD in “physchem” of 1.18. This molecule also yielded a microsomal CLint in “in vitro” (liver microsomes) of 33 µL/min/mg.
Turning to `N=C(N)c1cc2c(I)cccc2s1`, the logD in “physchem” worked out at 0.74. In “in vitro” (liver microsomes), this molecule registered a microsomal CLint of 4 µL/min/mg.
